Assay results published in patent publication US9796733B2, “Imidazo-pyrazine derivatives useful as soluble guanylate cyclase activators” (Merck Sharp & Dohme Corp., priority 2014, dated 2017).

Experiments:
[1] = tested on: Spontaneously hypertensive rats (SHR); experiment: Acute efficacy in spontaneously hypertensive rats (SHR): telemetry blood pressure lowering after a single oral dose; assay type: in vivo, rat
Outline: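 Male SHR carrying aortic telemetry implants (14-day recovery) received a single oral gavage of compound or vehicle (10% transcutol/20% Cremophor/70% water). Conscious blood pressure was sampled 30 s every 10 min and averaged hourly; change was taken against the prior-day vehicle baseline, reported as maximum peak SBP decrease at a given PO dose (mpk).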

sGC α1/β1 heterodimer = molecular target: T1, sGC α1/β1 heterodimer (Homo sapiens, UniProt Q02108+Q02153); experiment: Cell-based sGC functional assay (CASA assay): cGMP generation in CHO-K1/sGC cells, HTRF detection; settings: for Emax: CHO-K1, percent activation relative to standard Compound A in CHO-K1/sGC cells, read-out: % Act.; for EC50: inflection point (IP) of cGMP generation in CHO-K1/sGC cells, 4P fit, activity expressed as percentage of Compound A
T1 construct: expressed in transfected cells; host or cells: CHO-K1 (clone #7, CHO-K1/sGC)
T1 sequence (Q02108 1-690): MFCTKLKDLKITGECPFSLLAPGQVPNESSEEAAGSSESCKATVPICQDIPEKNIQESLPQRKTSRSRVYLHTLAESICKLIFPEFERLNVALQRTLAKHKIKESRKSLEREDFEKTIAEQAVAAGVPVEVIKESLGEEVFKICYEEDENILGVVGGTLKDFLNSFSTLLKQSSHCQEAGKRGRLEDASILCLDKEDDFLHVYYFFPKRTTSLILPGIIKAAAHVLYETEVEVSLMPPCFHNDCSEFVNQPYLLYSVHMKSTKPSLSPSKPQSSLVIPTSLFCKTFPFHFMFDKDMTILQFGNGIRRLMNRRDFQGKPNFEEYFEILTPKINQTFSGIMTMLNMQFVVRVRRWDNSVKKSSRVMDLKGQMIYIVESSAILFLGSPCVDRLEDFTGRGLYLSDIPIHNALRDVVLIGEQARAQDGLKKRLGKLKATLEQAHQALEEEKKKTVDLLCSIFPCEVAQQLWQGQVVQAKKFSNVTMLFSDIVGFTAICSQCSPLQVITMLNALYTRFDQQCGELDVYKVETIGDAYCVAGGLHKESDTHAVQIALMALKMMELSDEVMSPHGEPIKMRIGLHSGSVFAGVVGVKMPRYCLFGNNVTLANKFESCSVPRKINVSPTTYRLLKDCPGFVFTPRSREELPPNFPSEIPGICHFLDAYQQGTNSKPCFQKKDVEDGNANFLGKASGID
T1 sequence (Q02153 1-619): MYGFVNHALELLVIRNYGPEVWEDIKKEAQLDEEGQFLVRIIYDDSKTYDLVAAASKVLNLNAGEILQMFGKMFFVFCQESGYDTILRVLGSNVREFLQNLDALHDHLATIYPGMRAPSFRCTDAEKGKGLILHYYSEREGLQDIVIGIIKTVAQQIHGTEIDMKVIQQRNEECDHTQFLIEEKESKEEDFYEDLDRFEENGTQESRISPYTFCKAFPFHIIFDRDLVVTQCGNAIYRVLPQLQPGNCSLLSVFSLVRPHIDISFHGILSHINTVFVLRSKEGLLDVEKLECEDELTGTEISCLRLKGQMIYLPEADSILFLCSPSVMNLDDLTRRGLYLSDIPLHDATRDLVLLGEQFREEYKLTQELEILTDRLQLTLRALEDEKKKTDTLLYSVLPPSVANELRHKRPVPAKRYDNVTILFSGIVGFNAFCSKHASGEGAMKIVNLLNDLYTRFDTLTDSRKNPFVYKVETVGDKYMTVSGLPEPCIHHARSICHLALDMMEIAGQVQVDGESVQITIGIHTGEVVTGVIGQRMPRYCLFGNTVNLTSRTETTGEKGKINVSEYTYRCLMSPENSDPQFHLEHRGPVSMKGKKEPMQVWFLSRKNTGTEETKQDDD
Outline: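 Stable CHO-K1/sGC cells in EBSS buffer with 5 mM MgCl2, 0.05% BSA and 0.5 mM IBMX were incubated with compound (2.5% DMSO final) ±1 μM DETA-NO for 1 hr at 37° C. cGMP was measured by HTRF. Activation is expressed as % of reference HDA Compound A maximum, with IP and max fold induction from a 4P fit.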

SMILES | Maximum peak decrease of systolic blood pressure (SBP) in SHR, Cat. ([1]; P.O. 3.0 mpk) | Emax (sGC α1/β1 heterodimer) | EC50 (sGC α1/β1 heterodimer) | Maximum peak decrease of systolic blood pressure (SBP) in SHR, Cat. ([1]; P.O. 0.3 mpk) | Maximum peak decrease of systolic blood pressure (SBP) in SHR, Cat. ([1]; P.O. 1.0 mpk) | Maximum peak decrease of systolic blood pressure (SBP) in SHR, Cat. ([1]; P.O. 2.0 mpk)
CC1(c2ccc(F)c(Cl)c2)C(=O)Nc2nc(-c3cn4ccnc4c(CCC(F)(F)F)n3)nc(N)c21 (stereo not drawn) [Example 193B, 4-amino-5-(3-chloro-4-fluorophenyl)-5-methyl-2-(8-(3,3,3-trifluoropropyl)imidazo[1,2-a]pyrazin-6-yl)-5H-pyrrolo[2,3-d]pyrimidin-6(7H)-one] | B (Category B=SBP in SHRs 20-40 mmHg) | 111% | 355 nM | – | – | –
CC1(c2ccc(F)cc2)C(=O)Nc2nc(-c3cn4ccnc4c(CC4CCC4)n3)nc(N)c21 (stereo not drawn) [Example 114A, 4-amino-2-(8-(cyclobutylmethyl)imidazo [1,2-a]pyrazin-6-yl)-5-(4-fluorophenyl)-5-methyl-5H-pyrrolo[2,3-d]pyrimidin-6(7H)-one] | – | 94% | 57 nM | C (Category C=SBP in SHRs>40 mmHg) | – | –
Cc1cn2cc(-c3nc(N)c4c(n3)NC(=O)C4(C)c3ccc(F)cc3)nc(CCC(F)(F)C(F)(F)F)c2n1 (stereo not drawn) [Example 170A, 4-amino-5-(4-fluorophenyl)-5-methyl-2-(2-methyl-8-(3,3,4,4,4-pentafluorobutyl)imidazo [1,2-a]pyrazin-6-yl)-5H-pyrrolo[2,3-d]pyrimidin-6(7H)-one] | – | 104% | 57 nM | – | B (Category B=SBP in SHRs 20-40 mmHg) | –
CCCc1nc(-c2nc(N)c3c(n2)NC(=O)C3(c2ccc(Cl)cc2)C2CC2)cn2ccnc12 (stereo not drawn) [Example 26B, 4-amino-5-(4-chlorophenyl)-5-cyclopropyl-2-(8-propylimidazo[1,2-a]pyrazin-6-yl)-5H-pyrrolo[2,3-d]pyrimidin-6(7H)-one] | B (Category B=SBP in SHRs 20-40 mmHg) | 81% | 253 nM | – | – | –
Nc1nc(-c2cn3ccnc3c(CCC(F)(F)F)n2)nc2c1C(c1ccc(Cl)c(F)c1)(C1CC1)C(=O)N2 (stereo not drawn) [Example 190A, 4-amino-5-(4-chloro-3-fluorophenyl)-5-cyclopropyl-2-(8-(3,3,3-trifluoropropyl)imidazo[1,2-a]pyrazin-6-yl)-5H-pyrrolo[2,3-d]pyrimidin-6(7H)-one] | C (Category C=SBP in SHRs>40 mmHg) | 90% | 114 nM | – | – | –
CCCCc1nc(-c2nc(N)c3c(n2)NC(=O)C3(c2ccc(F)c(F)c2)C2CC2)cn2ccnc12 (stereo not drawn) [Example 330A, 4-amino-2-(8-butylimidazo[1,2-a]pyrazin-6-yl)-5-cyclopropyl-5-(3,4-difluorophenyl)-5H-pyrrolo[2,3-d]pyrimidin-6(7H)-one] | – | 142% | 22 nM | B (Category B=SBP in SHRs 20-40 mmHg) | – | –
CC(C)CCc1nc(-c2nc(N)c3c(n2)NC(=O)C3(C)c2ccc(F)cn2)cn2ccnc12 (stereo not drawn) [Example 11B, 4-amino-5-(5-fluoropyridin-2-yl)-2-(8-isopentylimidazo[1,2-a]pyrazin-6-yl)-5-methyl-5H-pyrrolo[2,3-d]pyrimidin-6(7H)-one] | – | 135% | 46 nM | – | B (Category B=SBP in SHRs 20-40 mmHg) | –
Nc1nc(-c2cn3ccnc3c(CCC(F)(F)F)n2)nc2c1C(c1ccc(F)cc1)(C1CCC1)C(=O)N2 (single isomer, unassigned) [Example 345B, 4-amino-5-cyclobutyl-5-(4-fluorophenyl)-2-(8-(3,3,3-trifluoropropyl)imidazo[1,2-a]pyrazin-6-yl)-5H-pyrrolo[2,3-d]pyrimidin-6(7H)-one] | A (Category A=SBP in SHRs<20 mmHg) | 148% | 949 nM | – | – | –
CC1(c2ccc(Cl)cc2F)C(=O)Nc2nc(-c3cn4ccnc4c(CCC(F)(F)F)n3)nc(N)c21 (stereo not drawn) [Example 179A, 4-amino-5-(4-chloro-2-fluorophenyl)-5-methyl-2-(8-(3,3,3-trifluoropropyl)imidazo[1,2-a]pyrazin-6-yl)-5H-pyrrolo[2,3-d]pyrimidin-6(7H)-one] | – | 129% | 45 nM | – | C (Category C=SBP in SHRs>40 mmHg) | –
Nc1nc(-c2cn3ccnc3c(CCC(F)(F)C(F)(F)F)n2)nc2c1C(c1ncc(Cl)cn1)(C1CC1)C(=O)N2 (stereo not drawn) [Example 349A, 4-amino-5-(5-chloropyrimidin-2-yl)-5-cyclopropyl-2-(8-(3,3,4,4,4-pentafluorobutyl)imidazo[1,2-a]pyrazin-6-yl)-5H-pyrrolo[2,3-d]pyrimidin-6(7H)-one] | – | 107% | 213 nM | – | – | B (Category B=SBP in SHRs 20-40 mmHg)
CC1(c2ccc(F)cc2)C(=O)Nc2nc(-c3cn4ccnc4c(CCCC(F)(F)F)n3)nc(N)c21 (stereo not drawn) [Example 211A, 4-amino-5-(4-fluorophenyl)-5-methyl-2-(8-(4,4,4-trifluorobutyl)imidazo[1,2-a]pyrazin-6-yl)-5H-pyrrolo[2,3-d]pyrimidin-6(7H)-one] | – | 122% | 75 nM | A (Category A=SBP in SHRs<20 mmHg) | – | –
CC1(c2ccc(Cl)cc2)C(=O)Nc2nc(-c3cn4ccnc4c(C4CCC4)n3)nc(N)c21 (stereo not drawn) [Example 15A, 4-amino-5-(4-chlorophenyl)-2-(8-cyclobutylimidazo[1,2-a]pyrazin-6-yl)-5-methyl-5H-pyrrolo[2,3-d]pyrimidin-6(7H)-one] | – | 119% | 82 nM | – | C (Category C=SBP in SHRs>40 mmHg) | –
CCCCc1nc(-c2nc(N)c3c(n2)NC(=O)C3(C)c2ccc(F)cn2)cn2ccnc12 (stereo not drawn) [Example 16B, 4-amino-2-(8-butylimidazo[1,2-a]pyrazin-6-yl)-5-(5-fluoropyridin-2-yl)-5-methyl-5H-pyrrolo[2,3-d]pyrimidin-6(7H)-one] | – | 117% | 134 nM | C (Category C=SBP in SHRs>40 mmHg) | – | –
CC1(c2ccc(Cl)cc2)C(=O)Nc2nc(-c3cn4ccnc4c(CCC(F)(F)C(F)(F)F)n3)nc(N)c21 (stereo not drawn) [Example 238A, 4-amino-5-(4-chlorophenyl)-5-methyl-2-(8-(3,3,4,4,4-pentafluorobutyl)imidazo [1,2-a]pyrazin-6-yl)-5H-pyrrolo[2,3-d]pyrimidin-6(7H)-one] | – | 131% | 71 nM | C (Category C=SBP in SHRs>40 mmHg) | – | –
Nc1nc(-c2cn3ccnc3c(CCCC(F)(F)F)n2)nc2c1C(c1ccc(C(F)(F)F)cn1)(C1CC1)C(=O)N2 (stereo not drawn) [Example 219A, 4-amino-5-cyclopropyl-2-(8-(4,4,4-trifluorobutyl)imidazo[1,2-a]pyrazin-6-yl)-5-(5-(trifluoromethyl)pyridin-2-yl)-5H-pyrrolo[2,3-d]pyrimidin-6(7H)-one] | – | 124% | 53 nM | – | B (Category B=SBP in SHRs 20-40 mmHg) | –
Cc1cn2cc(-c3nc(N)c4c(n3)NC(=O)C4(C)c3ccc(F)cn3)nc(CCC(F)(F)C(F)(F)F)c2n1 (stereo not drawn) [Example 172A, 4-amino-5-(5-fluoropyridin-2-yl)-5-methyl-2-(2-methyl-8-(3,3,4,4,4-pentafluorobutyl)imidazo [1,2-a]pyrazin-6-yl)-5H-pyrrolo[2,3-d]pyrimidin-6(7H)-one] | B (Category B=SBP in SHRs 20-40 mmHg) | 124% | 637 nM | – | – | –
